Read-outs that look alike come from different tables or passages of the source.
Tests used:
human Bub1 = human Bub1 (Homo sapiens (Human), UniProt O43683); assay: Bub1 high ATP kinase assay (TR-FRET); format: biochemical; details: read-out: Bub1 high ATP (2 mM) IC50; 2 mM ATP
Source text: Bub1-inhibitory activity of compounds of the present invention at a high ATP concentration was quantified employing the Bub1 TR-FRET high ATP kinase assay as described in the following paragraphs.
N-terminally His6-tagged recombinant catalytic domain of human Bub1 (amino acids 704-1085), expressed in insect cells (Hi5) and purified by Ni-NTA affinity chromatography and subsequent size exclusion chromatography, was used as enzyme.

Ba/F3-EGFR-insSVD = assay: Ba/F3 cell survival assay, EGFR-insSVD; format: cell-based
Summary of the method: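 Ba/F3 cells stably expressing WT EGFR or EGFR-insSVD via retrovirus, grown without IL-3 on 10 ng/mL EGF, plated at 4000 cells/well. Compound exposure 48 h at 37 °C; viability read by CellTiter-Glo luminescence.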

[1] = system: Ba/F3-EGFR-H773_V774insNPH; assay: Ba/F3 cell survival assay, EGFR H773_V774insNPH; format: cell-based; details: Ba/F3 EGFR-H773-V774ins_NPH, 48 h, read-out: BA/F3 (EGFR H773— V774insNPH) IC50
Protocol: (§1) 293T cells from ATCC were transfected with pBABEpuro expression constructs for mutant EGFR (V769_D770insASV, D770_N771insNPG, N771_P772insH, H773_V774insNPH, E746_A750del, L858R, D770_N771 insSVD C797S, E746_A750del C797S, L858R C797S, L861Q) or mutant ERBB2 (A775_G776insYVMA) and pCL-Eco packaging vector using Fugene-6 transfection reagent from Promega. Plates were incubated at 37° C. for 48 h. Retrovirus was harvested by filtering the media supernatant through a 0.45 μm filter.
(§2) Ba/F3 cells purchased from DSMZ were grown in RPMI+10% FBS+10 ng/mL IL-3 and infected with filtered retroviral supernatant at a 1:2 dilution. Polybrene was added to a concentration of 8 μg/mL, plates were spun for 90 min, and incubated overnight at 37° C. 2 μg/mL puromycin was added to the infected cells 24 h after infection and cells were continually grown in the presence of puromycin and 10 ng/mL IL-3. Following stably expressing Ba/F3 cell lines were generated: Ba/F3-EGFR-V769_D770insASV, Ba/F3-EGFR-D770_N771insNPG, Ba/F3-EGFR-N771_P772insH, Ba/F3-EG, Ba/F3-EGFR-H773_V774insNPH, Ba/F3-EGFR-E746_A750del, Ba/F3-EGFR-L858R, Ba/F3-EGFR-D770_N771 insSVD C797S, Ba/F3-EGFR-E746_A750del C797S, Ba/F3-EGFR-L858R C797S, Ba/F3-EGFR L861Q and Ba/F3-ERBB2-A775_G776insYVMA (Ba/F3—vector-control).
(§3) For cell survival assays, Ba/F3 cells were grown to a density of 1-2 million cells per mL, spun down and resuspended in media without IL-3, and replated at a concentration 200,000-500,000 cells per mL. The cells ectopically expressing WT EGFR plated with 10 ng/mL Millipore Culture grade EGF and Ba/F3 cells containing mutant EGFR or Mutant ERBB2 were cultivated without EGF. The cells ectopically expressing pBABEpuro empty vector were plated with 10 ng/mL IL-3.
(§4) 2 days later, cells were plated in 50 μL in a 384 well plate at a concentration of 4000 cells per well for cells assayed in the absence of IL-3 and 2000 cells per well for cells assayed in the presence of IL-3. 100 nL of compound was added to each well using a 100 nL pin head, and plates were incubated at 37° C. for 48 h.
(§5) Cell viability was measured by adding 20 μL of Cell Titer-Glo Luminescent Cell Viability Reagent diluted 1:3 in PBS. Plates were sealed with Perkin Elmer Top-Seal, inverted several times to mix, and immediately centrifuged at 1000 rpm for 2 min. Plates were incubated in low light conditions for 8-10 min and luminescence was measured.

Ba/F3-EGFR-L858R = assay: Ba/F3 cell survival assay, EGFR L858R; format: cell-based; details: 48 h, read-out: BA/F3 (EGFR L858R) IC50
Protocol: as §1, §2, §3, §4, §5

Ba/F3-EGFR L861Q = assay: Ba/F3 cell survival assay, EGFR L861Q; format: cell-based; details: 48 h, read-out: BA/F3 (EGFR L861Q) IC50
Protocol: as §1, §2, §3, §4, §5

[2] = system: Ba/F3-EGFR-E746_A750del C797S; assay: Ba/F3 cell survival assay, EGFR E746_A750del C797S; format: cell-based; details: 48 h, read-out: BA/F3 (EGFR E746_A750del C797S) IC50
Protocol: as §1, §2, §3, §4, §5

HCC-827 cells = assay: HCC-827 cell proliferation assay (EGFRex19del); format: cell-based; details: Homo sapiens, HCC827, 72 h, read-out: HCC-827 IC50
Protocol: HCC-827 cells were purchased from ATCC. […] cells per well were seeded in growth medium (RPMI1640, 10% FCS) in a 384-well plate (CORNING #3571). Seed reference plate for time zero determination on the same day. All plates were incubated overnight at 37° C. After 24 hours, test compound were added in 7-step dilution using HP Compound printer and incubated at 37° C. for 72 h. After 3 days, 30 μL/well CTG solution (Promega Cell Titer Glo solution; catalog #G755B and G756B) were added to each well, incubated for 30 minutes and the plate were read on PheraStar. Proliferation is calculated after subtracting time zero luminescence values from day 4 values and comparing to untreated wells.
The IC50 values were determined using the four parameter fit.

[3] = read-out: BA/F3 (insSVD) IC50, cell viability, Cell Titer-Glo, 48 h, with 10 ng/mL EGF, without IL-3

Chain of human Bub1 (O43683 704-1085): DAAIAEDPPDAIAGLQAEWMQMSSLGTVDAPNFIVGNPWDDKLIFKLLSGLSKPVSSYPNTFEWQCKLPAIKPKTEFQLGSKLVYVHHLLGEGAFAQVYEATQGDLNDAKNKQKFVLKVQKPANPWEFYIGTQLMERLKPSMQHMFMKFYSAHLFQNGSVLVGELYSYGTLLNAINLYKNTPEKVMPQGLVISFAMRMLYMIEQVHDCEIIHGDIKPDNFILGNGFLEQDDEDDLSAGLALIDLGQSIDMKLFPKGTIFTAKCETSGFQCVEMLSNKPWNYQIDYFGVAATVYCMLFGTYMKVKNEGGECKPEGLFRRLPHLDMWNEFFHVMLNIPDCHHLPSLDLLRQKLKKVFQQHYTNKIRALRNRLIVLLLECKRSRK

| Structure (SMILES) | IC50 (human Bub1) [nM] | IC50 (Ba/F3-EGFR-insSVD; [3]) [nM] | IC50 [1] [nM] | IC50 (Ba/F3-EGFR-L858R) [nM] | IC50 (Ba/F3-EGFR L861Q) [nM] | IC50 [2] [nM] | IC50 (HCC-827 cells) [nM] | IC50 (Ba/F3-EGFR-insSVD; Mus musculus, BaF3, 48 h, read-out: BA/F3 (insSVD) IC50, cell viability, Cell Titer-Glo, 48 h, with 10 ng/mL EGF, without IL-3) [nM] |
| --- | --- | --- | --- | --- | --- | --- | --- | --- |
| COc1c(Cl)cccc1Nc1c(-c2ccncc2OCC2(C)CCO2)[nH]c2c1C(=O)NCC2 (single isomer, unassigned; (+)) [Example 48, (+)-3-(3-chloro-2-methoxyanilino)-2-{3-[(2-methyloxetan-2-yl)methoxy]pyridin-4-yl}-1,5,6,7-tetrahydro-4H-pyrrolo[3,2-c]pyridin-4-one] | 10300 | 9.65 | 38.3 | 1.28 | 14.9 | 0.34 | < 3 | – |
| COc1c(Cl)cccc1Nc1c(-c2ccncc2OCC2OCC2(C)C)[nH]c2c1C(=O)NCC2 (single isomer, unassigned; (+)) [Example 50, (+)-3-(3-chloro-2-methoxyanilino)-2-{3-[(3,3-dimethyloxetan-2-yl)methoxy]pyridin-4-yl}-1,5,6,7-tetrahydro-4H-pyrrolo[3,2-c]pyridin-4-one] | > 20000 | 8.76 | 45.4 | 1.62 | 21.3 | 0.519 | < 3 | – |
| COc1c(Cl)cccc1Nc1c(-c2ccncc2OCCC2CCO2)[nH]c2c1C(=O)NCC2 (single isomer, unassigned; (-)) [Example 26, (−)-3-(3-chloro-2-methoxyanilino)-2-{3-[2-(oxetan-2-yl)ethoxy]pyridin-4-yl}-1,5,6,7-tetrahydro-4H-pyrrolo[3,2-c]pyridin-4-one] | 1540 | 7.31 | 29.6 | 0.813 | 6.51 | 0.27 | < 3 | – |
| COc1c(Cl)cccc1Nc1c(-c2ccncc2OC[C@@H]2CCO2)[nH]c2c1C(=O)NCC2 [Example 2, 3-(3-chlor-2-methoxyanilino)-2-{3-[(2S)-oxetan-2-ylmethoxy]pyridin-4-yl}-1,5,6,7-tetrahydro-4H-pyrrolo[3,2-c]pyridin-4-on] | > 20000 | – | 30.1 | 1.2 | 16.8 | 0.328 | < 3 | 10.3 |

From US20240307362A1 (priority 2019, published 2024)
